Among the data in patent US4315938A, “4-Phenyl-4,5,6,7-tetrahydro-pyrrolo [2,3-c] pyridines and salts thereof” (Boehringer Ingelheim Gmbh, priority 1979, dated 1982) are IC50 and ED50 values, retold here.

Like-named read-outs stand apart in the source and are kept apart here.

In assay [1] the test system is uptake of serotonin by the neurons (synaptosomes). Description: Inhibition of serotonin uptake by synaptosomes of homogenized cerebrum. It is filed as biochemical. The settings on record: rat cerebrum synaptosomes, 10 minutes at 37° C.; read-out: Serotonin inhibition IC 50. On the procedure: (§1) It is now believed that various forms of depression cause a deficiency of certain physiologically important amines, particularly noradrenaline and serotonin, in certain parts of the brain, and that the amount of such amines may be increased by inhibiting their uptake by neurons.
(§2) The test is performed on the homogenized, isolated cerebrum of the rat. A suspension of synaptosomes thus obtained is incubated with […] noradrenaline and/or serotonin and various concentrations of a solution of the test substance in water for 10 minutes at 37° C. When the incubation is finished, the medium is separated by filtering, and the radioactivity of the suspension of synaptosomes is measured.
(§3) A control test in the absence of the test substance is simultaneously carried out in order to determine the quantity of radioactive amines taken up. The quantity of the test substance in mols which is required to inhibit 50% of the uptake is designated the IC 50.

Assay [2] relates to hypothermic effect caused by reserpine. Description: Reserpine antagonism (elimination of the hypothermic effect caused by reserpine). It is filed as in vivo. As to conditions: Mus musculus, mice, oral, 17 h after 2 mg/kg i.p. reserpine. On the procedure: A further test for determining anti-depressive activity is based on reserpine-antagonism, that is, the elimination of the hypothermic effect caused by reserpine. The test is carried out in mice, 5 animals being used per dosage test. Seventeen hours after i.p. administration of 2 mg/kg of reserpine, the body temperature is measured peripherally while at a room temperature of 19° C. Afterwards, the test substance is administered orally, and the body temperature is measured after 1, 3, 5 and 7 hours. For each measured period a mean effective dose (ED50) is determined. This is the dosage at which the body temperature of the animals treated with reserpine approaches the normal temperature of untreated controls by 50%.

For assay [3], the system named is uptake of noradrenaline by the neurons (synaptosomes). Nature of the assay: Inhibition of noradrenaline uptake by synaptosomes of homogenized cerebrum. Type of assay: biochemical. The settings on record: rat cerebrum synaptosomes, 10 minutes at 37° C.; read-out: Noradrenaline inhibition IC 50. On the procedure: as §1, §2, §3
The mark [4] stands for this setting: 1 hour, read-out: Reserpine antagonism after 1 hour (ED50).
The mark [5] stands for this setting: 3 hours, read-out: Reserpine antagonism after 3 hours (ED50).
The mark [6] stands for this setting: 5 hours, read-out: Reserpine antagonism after 5 hours (ED50).
Where [7] appears, read: 7 hours, read-out: Reserpine antagonism after 7 hours (ED50).

For orientation: ED50 means the dose that gives a 50% effect, or the effect in half of the subjects. Take `Cn1ccc2c1CNCC2c1ccc(Br)cc1.O=C(O)/C=C\C(=O)O` (stereo not drawn) [1-methyl-4-(p-bromophenyl)-4,5,6,7-tetrahydro-pyrrolo-[2,3-c]pyridine maleate]: the results for the IC50 in assay [1] and in assay [3] were 530 nM and 6900 nM, respectively. Moreover, the 50% effective dose (ED50) in assay [2] (setting [4]) came out at 36 mg/kg; in assay [2] (setting [5]) it was 10 mg/kg; in assay [2] (setting [6]) it was 30 mg/kg; in assay [2] (setting [7]), 40 mg/kg.
Regarding `CCN1Cc2c(ccn2C)C(c2ccc(C)cc2)C1.Cl` (stereo not drawn) [1-methyl-4-(p-tolyl)-6-ethyl-4,5,6,7-tetrahydro-pyrrolo-[2,3-c]pyridine hydrochloride], the IC50 in assay [1] was found to be 20 nM; in assay [3] it was 600 nM. Moreover, the ED50 was > 40 mg/kg in assay [2] (setting [4]), < 10 mg/kg in assay [2] (setting [5]), 10 mg/kg in assay [2] (setting [6]) and > 40 mg/kg in assay [2] (setting [7]).
Take `CN1Cc2c(cc(CN3CCCCCC3)n2C)C(c2ccc(Br)cc2)C1` (stereo not drawn) [1,6-dimethyl-2-hexahydro-azepine-1-yl-methyl-4-(p-bromophenyl)-4,5,6,7-tetrahydro-pyrrolo[2,3-c]-pyridine dimaleate]: the ED50 was < 10 mg/kg in assay [2] (setting [4]), < 10 mg/kg in assay [2] (setting [5]), 20 mg/kg in assay [2] (setting [6]) and > 40 mg/kg in assay [2] (setting [7]).
`CN1Cc2c(ccn2C)C(c2ccc(Br)cc2)C1` (stereo not drawn) [1,6-Dimethyl-4-(p-bromophenyl)-4,5,6,7-tetrahydro-pyrrolo[2,3-c]pyridine]: the IC50 was determined as 90 nM in assay [1] and 1250 nM in assay [3]. The ED50 in assay [2] (setting [4]) is 20 mg/kg; in assay [2] (setting [5]), 6 mg/kg; in assay [2] (setting [6]), 40 mg/kg; in assay [2] (setting [7]) it was 40 mg/kg.
On to `CN1Cc2c(cc(CN3CCOCC3)n2C)C(c2ccccc2)C1` (stereo not drawn) [1,6-Dimethyl-2-morpholinomethyl-4-phenyl-4,5,6,7-tetrahydropyrrolo[2,3-c]pyridine], for which the IC50 in assay [1] was determined as 1600 nM; in assay [3] it was 6600 nM. The median effective dose (ED50) in assay [2] (setting [4]) was > 40 mg/kg; in assay [2] (setting [5]), 16 mg/kg; in assay [2] (setting [6]), 10 mg/kg; in assay [2] (setting [7]), < 40 mg/kg.
Take `CN1Cc2c(cc(CN3CCCCC3)n2C)C(c2ccc(Br)cc2)C1` (stereo not drawn) [1,6-dimethyl-2-piperidino-methyl-4-(p-bromophenyl)-4,5,6,7-tetrahydro-pyrrolo-[2,3-c]pyridine dimaleate]: the ED50 was > 40 mg/kg in assay [2] (setting [4]), 40 mg/kg in assay [2] (setting [5]), 40 mg/kg in assay [2] (setting [6]) and > 40 mg/kg in assay [2] (setting [7]).
`CN1Cc2c(cc(CN3CCCC3)n2C)C(c2ccc(Br)cc2)C1` (stereo not drawn) [1,6-dimethyl-2-pyrrolidino-methyl-4-(p-bromophenyl)-4,5,6,7-tetrahydro-pyrrolo-[2,3-c]pyridine dimaleate]: the ED50 was > 40 mg/kg in assay [2] (setting [4]), < 10 mg/kg in assay [2] (setting [5]), 10 mg/kg in assay [2] (setting [6]) and < 10 mg/kg in assay [2] (setting [7]).
With `Cc1ccc(C2CN(C)Cc3c2ccn3C)cc1.Cl` (stereo not drawn) [1,6-dimethyl-4-(p-tolyl)-4,5,6,7-tetrahydro-pyrrolo-[2,3-c]pyridine hydrochloride], the IC50 turned out to be 40 nM in assay [1] and 4900 nM in assay [3]. The ED50 in assay [2] (setting [4]) is > 40 mg/kg; in assay [2] (setting [5]) it was < 10 mg/kg; in assay [2] (setting [6]), 16 mg/kg; in assay [2] (setting [7]) it was < 10 mg/kg.
On to `CN1Cc2c(ccn2C)C(c2ccc(F)cc2)C1.Cl` (stereo not drawn) [1,6-dimethyl-4-(p-fluorophenyl)-4,5,6,7-tetrahydro-pyrrolo-[2,3-c]pyridine hydrochloride], for which the results for the IC50 in assay [1] and in assay [3] were 180 nM and 6700 nM, respectively. Also, the ED50 in assay [2] (setting [4]), in assay [2] (setting [5]), in assay [2] (setting [6]) and in assay [2] (setting [7]) was < 10 mg/kg each time.
For `CN1Cc2c(cc(Br)n2C)C(c2ccc(Br)cc2)C1` (stereo not drawn) [1,6-dimethyl-2-bromo-4-(p-bromophenyl)-4,5,6,7-tetrahydro-pyrrolo[2,3-c]-pyridine], the IC50 in assay [1] stood at 440 nM; in assay [3] it was 1800 nM. The ED50 in assay [2] (setting [4]) was > 40 mg/kg; in assay [2] (setting [5]), 14 mg/kg; in assay [2] (setting [6]) it was < 10 mg/kg; in assay [2] (setting [7]) it was 10 mg/kg.
Turning to `CN1Cc2c(ccn2C)C(c2ccc(Cl)cc2)C1.Cl` (stereo not drawn) [1,6-dimethyl-4-(p-chlorophenyl)-4,5,6,7-tetrahydro-pyrrolo-[2,3-c]pyridine hydrochloride], the IC50 was determined as 40 nM in assay [1] and 1500 nM in assay [3]. In addition, the ED50 in assay [2] (setting [4]), in assay [2] (setting [5]), in assay [2] (setting [6]) and in assay [2] (setting [7]) was < 10 mg/kg throughout.
With `CN(CCO)Cc1cc2c(n1C)CN(C)CC2c1ccc(Br)cc1` (stereo not drawn) [1,6-dimethyl-2-N-methyl-N-β-hydroxyethyl-aminomethyl-4-(p-bromophenyl)-4,5,6,7-tetrahydro-pyrrolo[2,3-c]-pyridine dimaleate], the figures for the IC50 in assay [1] and in assay [3] were 380 nM and 1300 nM, respectively. Moreover, the ED50 in assay [2] (setting [4]) was 10 mg/kg; in assay [2] (setting [5]) it was < 10 mg/kg; in assay [2] (setting [6]) it was 13 mg/kg; in assay [2] (setting [7]), 10 mg/kg.
